{
  "source": "patent US9512180B2",
  "about": "“Compstatin analogs” (THE REGENTS OF THE UNIVERSITY OF CALIFORNIA, priority 2012, dated 2016)",
  "key": {"[1]": {"test": "RP-HPLC relative lipophilicity (retention factor k, log k)", "format": "physicochemical", "experimental": "The effect of the hydrophobic content of compstatin family peptides on relative lipophilicity was evaluated using RP-HPLC, a widely applied indirect technique for the determination of the lipophilicity of drugs and drug candidates. The determination of log P by RP-HPLC is based on the measurement of the retention factor k between the mobile and stationary phase (Eq. 7) of the investigated compound:\n[formula] where tR is the retention time of the analyte, and to is the elution time of an unretained analyte. The logarithm of the retention factor is linearly correlated with the logarithm of the partition coefficient log P=a log k+b (8). where a and b are the slope and intercept of the linear equation.\nThe determination of log P values requires calibration using structurally related compounds, and is beyond the scope of this study. Instead the log k values were used to indicate the relative lipophilicities of this compstatin peptide family.\nHPLC experiments were carried out using an Agilent 1100 HPLC with UV detection at 280 nm at 25° C. Separations were performed on a Waters (Milford, Mass.) 4.6×150 mm XTerra MS C18 column with 5 μm pore size using a mobile phase of A: 10 mM phosphate buffer pH=7.4 containing 1% TFA, and B: acetonitrile. The purity of the peptides was verified by an isocratic separation at 28% B and a flow rate of 1 mL/min. Solutions containing 0.6-0.8 mg/mL of Peptides I, III, VI, IX and the parent peptide were prepared in methanol and diluted 5-times with the eluent. All five peptides eluted as single peaks indicating a high degree of purity (FIG. 10).\nFor the determination of the relative lipophilicities a solution containing each of the peptides was prepared from the stock solutions and injected in triplicate. […] A 0.5 mg/mL solution of aspartic acid was used as the unretained analyte for the determination of the column dead time, 1.439±0.003 min.\nRP-HPLC was used to measure the hydrophobicity/lipophilicity content of the compstatin family peptides. The retention of a compound in RP-HPLC depends on its hydrophobicity/lipophilicity content, and is correlated to the octanol-water partition ratio. Lipophilicity describes the partitioning of a compound between an aqueous and a lipidic/hydrophobic environment, and is an essential physicochemical parameter to determine pharmacokinetic behavior according to ADME (absorption, distribution, metabolism, excretion) characterization. Because the compstatin family peptides consist of a hydrophobic and a polar surface, their ability to bind to the hydrophobic cavity of C3, while maintaining a solvent-exposed face has been evaluated here as lipohilicity content, measured by RP-HPLC. In addition, lipohilicity is inversely proportional to aqueous solubility, and therefore can be used to estimate solubility of the peptides in their free (unbound) state."}, "soluble C5b-9": {"test_system": "soluble C5b-9", "test": "Soluble C5b-9 ELISA of the RPE cell-based assay medium", "set-up": "species or system human", "details": "peptide 1 μM; for soluble C5b-9 in assay medium relative to positive control: 10% human complement serum, ~24 hrs, mean±S.E.M., three donors; for Assay medium C5b-9 ELISA % of positive control: RPE cell assay medium, Mean (S.E.M.)", "experimental": "The in vitro drusen biogenesis model was employed. Human fetal RPE cells (Advanced Bioscience Resources, Alameda, Calif.) were cultured on Millipore HA porous supports (Millipore, Cat # PIHA 01250) in Miller medium (Maminishkis et al., 2006) supplemented with 5% fetal calf serum (FCS). Cultures derived from three different donor eyes were employed. Cells were rinsed with warm, sterile PBS and the insert membrane was excised with a scalpel and cut into small (˜4 mm^2) pieces which were placed in wells of a 96-well plate. To minimize effects of inter-culture variability, samples prepared from a single membrane were utilized for each experiment. The samples were rinsed in PBS and then exposed individually to the library of compstatin family peptides at 1 μM in FCS-free Miller medium containing 10% human complement serum (Innovative Research, Cat # IPLA-CSER AB, Lot # L12402). In preliminary experiments, compstatin family Peptides I, III, VI, VII, VIII, IX, and Parent (Table 7), were tested in the RPE cell assay at 100 μM and titrated by C5b-9 ELISA over a concentration range of 0.04-130 μM. […] Also from this assessment, Peptide VI, as well as Peptides I and III, were selected for further studies. Peptides I and III were chosen for comparative studies to Peptide VI, because they contain an arginine residue at position 1. The goal was to determine whether peptides containing arginine at position −1 (Peptide VI) or at position 1 (Peptides I and III) were potent complement inhibitors using the RPE cell assay and had improved aqueous solubility compared to previously known potent analogs. Negative control cells were exposed to Miller medium+5% FCS; positive control cells were exposed to Miller medium+10% human complement serum without inhibitory peptides. Experimental and control medium/inhibitor solutions were pre-mixed on a rocker at room temperature for 30 min, then warmed to 37° C., prior to placement on the samples and incubation for ˜24 hrs at 37° C. in a 7.0% CO2 incubator. Following the incubation period, the medium was removed and stored frozen prior to ELISA analysis. The cell/membrane samples were rinsed in PBS, fixed in cold 4% paraformaldehyde (PFA) in PBS for 20 min, and stored in 0.4% PFA until use in immunohistochemical assays.\nSoluble C5b-9 ELISA of the RPE Cell-Based Assay Medium.\nExperimental medium solutions were diluted 1/625 in assay diluent and quadruplicate ELISAs were performed using an OptEIA C5b-9 ELISA kit (BD Biosciences, Cat #558315). Plates were read at 450 nm, with absorbance at 570 nm subtracted for wavelength correction, on a BioRad Benchmark plate reader. C5b-9 concentrations were calculated using a standard curve generated using purified human C5b-9. Data was expressed as a percentage relative to the positive (human serum only) control. Means and standard errors for data from the three RPE donor cells were calculated and graphed using SigmaPlot 11.0 (Systat Software, San Jose, Calif.), and one-way ANOVA was calculated using Tukey's test for multiple comparisons."}},
  "note": "Marks after values point to notes of the source that are not given here. Bridge positions count the residues as written; N and C are the ends. Square brackets hold non-standard residues; d marks the D form. Peptide text beside a SMILES is read from it. Trp(1-Me) = Cn1cc(C[C@H](N)C(=O)O)c2ccccc21",
  "data": [
    {"smiles": "CC[C@H](C)[C@H](N)C(=O)N[C@H]1CSSC[C@@H](C(=O)N[C@H](C(N)=O)[C@@H](C)O)NC(=O)[C@H](CCCN=C(N)N)NC(=O)[C@H](Cc2cnc[nH]2)NC(=O)[C@H](Cc2cnc[nH]2)NC(=O)CNC(=O)[C@H](Cc2c[nH]c3ccccc23)NC(=O)[C@H](CC(=O)O)NC(=O)[C@H](CCC(N)=O)NC(=O)[C@H](C(C)C)NC(=O)[C@H](C(C)C)NC1=O", "note": "[Parent, ICV VQDWGH HRCT-NH2, reference compound]", "values": [
      {"measurement": "Retention factor (k)", "setting": "[1]", "value": 2.472},
      {"measurement": "logk", "setting": "[1]", "value": 0.393},
      {"measurement": "relative lipophilicity", "setting": "[1]; isocratic 24% acetonitrile, pH=7.4 phosphate buffer", "value": "least lipophilic"},
      {"measurement": "soluble C5b-9 in assay medium relative to positive control", "setting": "soluble C5b-9", "value": "88.5±0.76", "unit": "%"},
      {"measurement": "Assay medium C5b-9 ELISA % of positive control", "setting": "soluble C5b-9", "value": "88.49 (0.76) % of positive control"}
    ]},
    {"smiles": "CC(=O)N[C@@H](CCCNC(=N)N)C(=O)N[C@H]1CSSC[C@@H](C(=O)N[C@H](C(N)=O)[C@@H](C)O)NC(=O)[C@H](CCCNC(=N)N)NC(=O)[C@H](Cc2c[nH]cn2)NC(=O)[C@H](C)NC(=O)CNC(=O)[C@H](Cc2c[nH]c3ccccc23)NC(=O)[C@H](CC(=O)O)NC(=O)[C@H](CCC(N)=O)NC(=O)[C@H](Cc2c[nH]c3ccccc23)NC(=O)[C@H](C(C)C)NC1=O", "note": "[Peptide I, Ac- RCV WQDWGA HRCT-NH2] (Ac-RCVWQDWGAHRCT-NH2; disulfide 2-12)", "values": [
      {"measurement": "Retention factor (k)", "setting": "[1]", "value": 2.828},
      {"measurement": "logk", "setting": "[1]", "value": 0.451},
      {"measurement": "soluble C5b-9 in assay medium relative to positive control", "setting": "soluble C5b-9", "value": "61.4±2.3", "unit": "%"},
      {"measurement": "Assay medium C5b-9 ELISA % of positive control", "setting": "soluble C5b-9", "value": "61.37 (2.34)^a % of positive control"}
    ]},
    {"smiles": "CC(=O)N[C@@H](CCCNC(=N)N)C(=O)N[C@H]1CSSC[C@@H](C(=O)N[C@H](C(N)=O)[C@@H](C)O)NC(=O)[C@H](CCCNC(=N)N)NC(=O)[C@H](Cc2c[nH]cn2)NC(=O)[C@H](C)NC(=O)CNC(=O)[C@H](Cc2c[nH]c3ccccc23)NC(=O)[C@H](CC(=O)O)NC(=O)[C@H](CCC(N)=O)NC(=O)[C@H](Cc2cn(C)c3ccccc23)NC(=O)[C@H](C(C)C)NC1=O", "note": "[Peptide III, Ac- RCV meWQDWGA HRCT-NH2] (Ac-RCV[Trp(1-Me)]QDWGAHRCT-NH2; disulfide 2-12)", "values": [
      {"measurement": "Retention factor (k)", "setting": "[1]", "value": 6.165},
      {"measurement": "logk", "setting": "[1]", "value": 0.790},
      {"measurement": "soluble C5b-9 in assay medium relative to positive control", "setting": "soluble C5b-9", "value": "50.0±0.8", "unit": "%"},
      {"measurement": "Assay medium C5b-9 ELISA % of positive control", "setting": "soluble C5b-9", "value": "50.02 (0.82) % of positive control"}
    ]},
    {"smiles": "CC[C@H](C)[C@H](NC(=O)[C@H](CO)NC(=O)[C@H](CCCNC(=N)N)NC(C)=O)C(=O)N[C@H]1CSSC[C@@H](C(=O)N[C@H](C(N)=O)[C@@H](C)O)NC(=O)[C@H](CCCNC(=N)N)NC(=O)[C@H](Cc2c[nH]cn2)NC(=O)[C@H](C)NC(=O)CNC(=O)[C@H](Cc2c[nH]c3ccccc23)NC(=O)[C@H](CC(=O)O)NC(=O)[C@H](CCC(N)=O)NC(=O)[C@H](Cc2cn(C)c3ccccc23)NC(=O)[C@H](C(C)C)NC1=O", "note": "[Peptide VI, Ac-RS-ICV meWQDWGA HRCT-NH2]", "values": [
      {"measurement": "Retention factor (k)", "setting": "[1]", "value": 9.913},
      {"measurement": "logk", "setting": "[1]", "value": 0.996},
      {"measurement": "soluble C5b-9 in assay medium relative to positive control", "setting": "soluble C5b-9", "value": "44.6±3.2", "unit": "%"},
      {"measurement": "Assay medium C5b-9 ELISA % of positive control", "setting": "soluble C5b-9", "value": "44.60 (3.16) % of positive control"}
    ]}
  ]
}
